Some test systems named below: M19-MEL; LXFL 529; DLD-1; RXF 631; XF498; DMS-273; HOP-18; KM-20L2; DMS-114.
Experiment in all cases: NCI anticancer screen, dose series, 48 h

The record followed here is ChEMBL document CHEMBL1201862, “PubChem BioAssay data set” (2004).

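Interpolation was linear, between the two tested concentrations surrounding the appropriate level; five concentrations were tested over 48 hours in 96-well plates. GI50 marks 50% less growth.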 Activity calls are given as the source filed them. Cut-off read from the data, not from the text of the source: active = GI50 up to about 1.1 µM and inactive = higher.

With `COC(=O)NC1C(C)OC(OC2C/C=C(/C)C3C=CC4C(OC5CC(OC6CCC(OC7CC(O)C(OC8CCC(O)C(C)O8)C(C)O7)C(C)O6)C(OC(C)=O)C(C)O5)C(C)CC(C)C4C3(C)/C(O)=C3/C(=O)OC4(CC(C=O)=CC(O)C4/C=C\2C)C3=O)CC1(C)[N+](=O)[O-]` (stereo not given), the GI50 with M19-MEL was 0.367 µM (active); in the test with LXFL 529 it was 0.352 µM (active); with DLD-1, 2.45 µM (inactive); with RXF 631 it was 0.603 µM (active); in the test with XF498, 0.261 µM (active); in the test with DMS-273 it was 1.27 µM (inactive). The GI50 in the test with HOP-18 was 2.15 µM (inactive); in the test on KM-20L2 it was 1.29 µM (inactive); in the test with DMS-114, 0.385 µM (active).

Consider `C/C(=N/O)c1sc(-c2nc(C)c(/C(C)=N\O)s2)nc1C`, for which the GI50 with M19-MEL, in the test with LXFL 529, with DLD-1, in the test on RXF 631, in the test with XF498 and in the test on DMS-273 was > 100 µM (inactive) in each case. Further, the GI50 in the test on HOP-18, in the test with KM-20L2 and in the test on DMS-114 was > 100 µM (inactive) in each case.

`CC(=O)Oc1c(Br)ccc2cc(C(Br)Br)c(C(=O)c3ccccc3)nc12`: the GI50 in the test with M19-MEL was 22.3 µM (inactive); in the test on LXFL 529 it was 30.6 µM (inactive); in the test on DLD-1 it was 24 µM (inactive); in the test with RXF 631, 23.5 µM (inactive); with XF498 it was 14.8 µM (inactive); in the test with DMS-273 it was 20.6 µM (inactive). In addition, the GI50 in the test on HOP-18 was 17.2 µM (inactive); in the test on KM-20L2, 19.4 µM (inactive); in the test with DMS-114, 24.8 µM (inactive).

As for `COC(=O)c1ccc2c(c1)C(NC(C)=O)CCc1cc(OC)c(OC)c(OC)c1-2` (stereo not given), the GI50 was 0.0235 µM (active) in the test on M19-MEL; < 0.0154 µM (active) in the test with LXFL 529; 0.0173 µM (active) in the test on DLD-1; 0.014 µM (active) in the test on RXF 631; 0.06 µM (active) in the test on XF498; < 0.01 µM (active) in the test on DMS-273. For the same compound, the GI50 with HOP-18 was > 40.4 µM (inactive); in the test on KM-20L2 it was 0.0118 µM (active); with DMS-114, < 0.0126 µM (active).

Consider `CCOC(=O)c1c(C(F)(F)F)oc2c1ccc1nc3nonc3nc12`, for which the GI50 in the test with M19-MEL is 18.6 µM (inactive); with LXFL 529, 14 µM (inactive); in the test with DLD-1, 14.3 µM (inactive); in the test with RXF 631, 19 µM (inactive); in the test with XF498, 17 µM (inactive); in the test on DMS-273 it was 19.1 µM (inactive). The GI50 with HOP-18 is 11 µM (inactive); in the test on KM-20L2, 18.2 µM (inactive); with DMS-114, 23.7 µM (inactive).
